# Test results: patent US12618845B2, “Methods and compositions for protein sequencing” (Quantum-Si Incorporated, priority 2018, dated 2026)
# Entries after “also recorded” stand apart in the source; their conditions may differ. Square brackets hold non-standard residues; d marks the D form. Ends that are not written are not given here. Lys(N3) = [N-]=[N+]=NCCCC[C@H](N)C(=O)O
# System: proline iminopeptidase (PIP)
# Assay: Terminal amino acid cleavage of peptide-linker conjugates monitored by LCMS, PIP
# Assay type: biochemical
# Conditions: incubated with PIP
# Description: (§1) The peptide-linker conjugates were evaluated for amino acid cleavage at peptide N-termini by N-terminal aminopeptidases (Table 6, below).
# (§2) The peptide-linker conjugates shown in Table 6 were incubated with either proline iminopeptidase (“PIP”) or rat aminopeptidase N (“Rat APN”), and peptide cleavage was monitored by LCMS. All other cleavage reactions were measured in a similar manner.
row,Substance,Cleaved by PIP
1,KPKPKP{LYS(N3)} [Entry 10],No
2,FPFPFP{LYS(N3)} [Entry 8],Yes
3,DPDPDP{LYS(N3)} [Entry 9],Yes
4,KPKPKP{LYS(N3)} [Entry 11],Yes

# System: amino acid at a terminal position of a polypeptide
# Assay: not given
# Conditions: amino acid identity at a terminal position of a polypeptide; phospho-Y also at an internal position; cited from earlier work
row,Substance,Binding Pref.
1,"H. sapiens p62 fragment 126-180: amino acid recognition protein, SEQ ID NO: 28","K, R, H,; also recorded: W, F, Y"
2,"Rattus norvegicus p62 protein: amino acid recognition protein, SEQ ID NO: 30","K, R, H,; also recorded: W, F, Y"
3,"H. sapiens p62 fragment 1-180: amino acid recognition protein, SEQ ID NO: 27","K, R, H,; also recorded: W, F, Y"
4,"H. sapiens p62 fragment 1-310: amino acid recognition protein, SEQ ID NO: 26","K, R, H,; also recorded: W, F, Y"
5,"H. sapiens Src tyrosine kinase SH2 domain: amino acid recognition protein, SEQ ID NO: 24",phospho-Y

# Biological target: T1, rat aminopeptidase N (Rat APN) (Rattus norvegicus, UniProt P15684)
# T1 sequence (P15684 1-965): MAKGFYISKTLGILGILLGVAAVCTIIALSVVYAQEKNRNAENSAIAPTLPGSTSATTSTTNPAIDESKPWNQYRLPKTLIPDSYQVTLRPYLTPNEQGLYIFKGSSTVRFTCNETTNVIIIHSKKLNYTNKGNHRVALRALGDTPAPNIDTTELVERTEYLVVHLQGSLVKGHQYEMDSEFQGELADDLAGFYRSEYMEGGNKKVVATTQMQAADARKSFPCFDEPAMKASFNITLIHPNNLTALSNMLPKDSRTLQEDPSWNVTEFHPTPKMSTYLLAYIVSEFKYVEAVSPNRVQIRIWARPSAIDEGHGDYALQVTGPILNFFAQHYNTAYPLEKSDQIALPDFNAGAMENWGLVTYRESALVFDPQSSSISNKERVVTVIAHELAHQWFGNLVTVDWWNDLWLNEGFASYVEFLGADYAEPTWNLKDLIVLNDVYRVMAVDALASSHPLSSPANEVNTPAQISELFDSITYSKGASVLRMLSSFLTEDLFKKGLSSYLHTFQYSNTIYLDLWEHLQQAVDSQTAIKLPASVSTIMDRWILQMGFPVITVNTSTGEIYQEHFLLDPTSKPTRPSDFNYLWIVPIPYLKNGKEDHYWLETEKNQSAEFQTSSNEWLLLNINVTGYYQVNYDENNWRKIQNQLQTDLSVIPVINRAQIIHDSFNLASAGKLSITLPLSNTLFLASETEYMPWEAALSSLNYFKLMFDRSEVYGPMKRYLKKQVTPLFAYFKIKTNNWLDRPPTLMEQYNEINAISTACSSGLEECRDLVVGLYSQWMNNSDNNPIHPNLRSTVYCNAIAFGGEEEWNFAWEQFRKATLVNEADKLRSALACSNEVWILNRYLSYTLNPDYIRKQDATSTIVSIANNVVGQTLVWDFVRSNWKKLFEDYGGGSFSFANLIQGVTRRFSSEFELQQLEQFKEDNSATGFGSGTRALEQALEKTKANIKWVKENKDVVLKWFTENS
# Assay: Terminal amino acid cleavage of peptide-linker conjugates monitored by LCMS, Rat APN
# Assay type: biochemical
# Conditions: incubated with Rat APN
# Description: as §1, §2
row,Cleaved by Rat APN,Substance
1,Yes,DDMDDM{LYS(N3)} [Entry 5]
2,No,"KKMKKM{LYS(N3)} [2] (KKMKKM[Lys(N3)]; also: oligo linker) [Entry 2, 71, positive class, oligo linker]"
3,Yes,"KKMKKM{LYS(N3)} [4] (KKMKKM[Lys(N3)]; also: PEG4 linker) [Entry 4, 71, positive class, PEG4 linker]"
4,Yes,"FFMFFM{LYS(N3)} (FFMFFM[Lys(N3)]; also: oligo linker) [Entry 6, 73, aromatic class, oligo linker]"
5,No,"KKMKKM{LYS(N3)} [3] (KKMKKM[Lys(N3)]; also: oligo-PEG linker) [Entry 3, 71, positive class, oligo-PEG linker]"
6,Yes,AAMAAM{LYS(N3)} [Entry 7]
